Measured values taken from patent publication EP4603105A1, “PHARMACEUTICAL COMPOSITION CONTAINING CYCLIC COMPOUND HAVING SELECTIVE KRAS INHIBITORY EFFECT AGAINST HRAS AND NRAS” (CHUGAI SEIYAKU KABUSHIKI KAISHA, priority 2022, dated 2024).
Where a SMILES comes first, the peptide text is derived from it. Bridges are numbered along the chain shown (N, C = ends). [ ]: non-standard residue; d: D form. The star is where a group is joined. hPhe(3-Cl-4-CF3) = N[C@@H](CCc1ccc(C(F)(F)F)c(Cl)c1)C(=O)O; NPrPhe(4-CF3) = CCCN[C@@H](Cc1ccc(C(F)(F)F)cc1)C(=O)O; NMeGly(cPent) = CN[C@H](C(=O)O)C1CCCC1; Hyp = O=C(O)[C@@H]1C[C@@H](O)CN1; NMeD = CN[C@@H](CC(=O)O)C(=O)O; NMeL = CN[C@@H](CC(C)C)C(=O)O; Morpholide = C1CN(*)CCO1; NMeA = CN[C@@H](C)C(=O)O; Ac5c = NC1(C(=O)O)CCCC1; Aze = O=C(O)[C@@H]1CCN1; Abu = CC[C@H](N)C(=O)O; Ac4c = NC1(C(=O)O)CCC1; Sar = CNCC(=O)O

Experiments:
[1] = target: HRAS wild-type protein (Homo sapiens, UniProt P01112); assay: Binding to HRAS by surface plasmon resonance (SPR), KD and KD ratio to KRAS
Summary of the method: (§1)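 Single-cycle kinetics on GDP-loaded biotin-Avi RAS captured to ~100–300 RU; 75 s ascending injections, 100 µL/min, 30°C. HBS pH 7.4 + 10 mM MgCl2/10 µM GDP/4% DMSO. 1:1 fit, KD.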

[2] = test system: human lung cancer strain NCI-H441; assay type: cell-based
Summary of the method: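 Proliferation was scored by […] measured after the reagent was added to cultures kept at 37°C in 5% carbon dioxide.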

[3] = target: GDP-bound NRAS wild-type protein (Homo sapiens, UniProt P01111); assay: Binding to NRAS by surface plasmon resonance (SPR), KD and KD ratio to KRAS
Summary of the method: as §1

[4] = ratio of KD for HRAS wild-type protein to KD for KRAS
[5] = ratio of KD for GDP-bound NRAS wild-type protein to KD for KRAS
[6] = ratio of the KD value with respect to HRAS wild-type protein to the KD value with respect to KRAS
[7] = ratio of the KD value with respect to GDP-bound NRAS wild-type protein to the KD value with respect to KRAS

HRAS wild-type protein, sequence (P01112 whole entry): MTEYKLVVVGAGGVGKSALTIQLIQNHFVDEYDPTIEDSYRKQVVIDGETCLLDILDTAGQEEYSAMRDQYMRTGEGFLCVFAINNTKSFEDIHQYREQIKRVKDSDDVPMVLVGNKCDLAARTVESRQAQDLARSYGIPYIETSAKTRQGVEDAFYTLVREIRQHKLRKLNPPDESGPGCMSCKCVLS
GDP-bound NRAS wild-type protein, sequence (P01111 whole entry): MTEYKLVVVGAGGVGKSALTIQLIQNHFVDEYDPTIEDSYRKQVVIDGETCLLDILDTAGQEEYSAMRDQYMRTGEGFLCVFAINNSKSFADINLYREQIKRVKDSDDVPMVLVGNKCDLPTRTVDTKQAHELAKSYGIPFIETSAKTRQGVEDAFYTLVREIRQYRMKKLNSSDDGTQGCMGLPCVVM

IC50 [2] [nM] | Structure (SMILES) | HRAS /KRAS [1, 4] | NRAS /KRAS [3, 5] | HRAS /KRAS [1, 6] | NRAS /KRAS [3, 7]
80.2 | CCCN1C(=O)CN(C)C(=O)CNC(=O)[C@H]([C@@H](C)CC)NC(=O)[C@H](CC(C)C)N(C)C(=O)C[C@@H](C(=O)N(C)C)NC(=O)[C@H](C2CCCC2)N(C)C(=O)C2(CCC2)NC(=O)[C@@H]2C[C@@H](OCC)CN2C(=O)[C@H](CCc2ccc(C(F)(F)F)c(Cl)c2)NC(=O)CN(C)C(=O)[C@@H]1Cc1ccc(C(F)(F)F)cc1 [PP0366] ([NMeL]IG[Sar][NPrPhe(4-CF3)][Sar][hPhe(3-Cl-4-CF3)][Hyp](Et)[Ac4c][NMeGly(cPent)]D-NMe2; lactam N-11) | B (a compound having 3 or more and less than 10 is denoted as B) | B (a compound having 3 or more and less than 10 is denoted as B) | – | –
457 | CC[C@H](C)[C@@H]1NC(=O)[C@H](CC(C)C)NC(=O)C[C@@H](C(=O)N2CCOCC2)N(C)C(=O)[C@H](C2CCCC2)N(C)C(=O)C2(CCCC2)NC(=O)[C@@H]2CCCN2C(=O)[C@H](CCc2cc(F)c(C(F)(F)F)c(F)c2)NC(=O)CN(C)C(=O)[C@H](Cc2ccc(C(F)(F)F)cc2)N2CCCCC[C@@H](C2=O)N(C)C(=O)CN(C)C1=O [PP0516] | – | – | B (a compound having 3 or more and less than 10 is denoted as B) | B (a compound having 3 or more and less than 10 is denoted as B)
5.2 | CC[C@H](C)[C@@H]1NC(=O)[C@H](CC(C)C)N(C)C(=O)C[C@@H](C(=O)N2CCOCC2)N(C)C(=O)[C@H](C2CCCC2)N(C)C(=O)C2(CCC2)NC(=O)[C@@H]2CCCN2C(=O)[C@H](CCc2cc(F)c(C(F)(F)F)c(F)c2)NC(=O)CN(C)C(=O)[C@H](Cc2ccc(C(F)(F)F)cc2)N2CCCC[C@@H](C2=O)N(C)C(=O)CN(C)C1=O [PP0560] | – | – | B (a compound having 3 or more and less than 10 is denoted as B) | B (a compound having 3 or more and less than 10 is denoted as B)
34.7 | CCCN1C(=O)[C@@H]2CCN2C(=O)[C@H](C)N(C)C(=O)[C@H](CC)NC(=O)[C@H](CC(C)C)N(C)C(=O)C[C@@H](C(=O)N2CCOCC2)N(C)C(=O)[C@H](C2CCCC2)N(C)C(=O)C2(CCCC2)NC(=O)[C@@H]2CCCN2C(=O)[C@H](CCc2ccc(C(F)(F)F)c(Cl)c2)NC(=O)CN(C)C(=O)[C@@H]1Cc1ccc(C(F)(F)F)cc1 [PP0269] ([NMeL][Abu][NMeA][Aze][NPrPhe(4-CF3)][Sar][hPhe(3-Cl-4-CF3)]P[Ac5c][NMeGly(cPent)][NMeD]-Morpholide; lactam N-11) | B (a compound having 3 or more and less than 10 is denoted as B) | C (A compound having a KD ratio of 0.1 or more and less than 3 is denoted as C) | – | –
83 | CC(C)C[C@H]1C(=O)N[C@@H](C2CCC2)C(=O)N(C)CC(=O)N(C)[C@H]2CCCCCN(C2=O)[C@@H](Cc2ccc(C(F)(F)F)cc2)C(=O)N(C)CC(=O)N[C@@H](CCc2cc(F)c(C(F)(F)F)c(F)c2)C(=O)N2CCC[C@H]2C(=O)NC2(CCCC2)C(=O)N(C)[C@@H](C2CCCC2)C(=O)N(C)[C@H](C(=O)N2CCOCC2)CC(=O)N1C [PP0522] | – | – | B (a compound having 3 or more and less than 10 is denoted as B) | B (a compound having 3 or more and less than 10 is denoted as B)
39.1 | CCO[C@@H]1C[C@H]2C(=O)NC3(CC(C)(C)C3)C(=O)N(C)[C@@H](C(CC)CC)C(=O)N(C)[C@H](C(=O)N3CCCC3)CC(=O)N(C)[C@@H](COC)C(=O)N[C@@H]([C@@H](C)CC)C(=O)N(C)CC(=O)N(C)[C@H]3C/C=C\CCN(C3=O)[C@@H](Cc3ccc(C)cc3)C(=O)N(C)CC(=O)N[C@@H](CCc3ccc(C(F)(F)F)c(OC)c3)C(=O)N2C1 [PP2167] | – | – | A (a compound having 10 or more and less than 20 is denoted as A) | AA (a compound having 20 or more is denoted as AA)
525 | CC[C@H](C)[C@@H]1NC(=O)[C@H](CC(C)C)N(C)C(=O)C[C@@H](C(=O)N2CCOCC2)N(C)C(=O)[C@H](C2CCCC2)N(C)C(=O)C2(CCCC2)NC(=O)[C@@H]2CCCN2C(=O)[C@H](CCc2cc(F)c(C(F)(F)F)c(F)c2)NC(=O)CN(C)C(=O)[C@H](Cc2ccc(C(F)(F)F)cc2)N2CCCCC[C@@H](C2=O)N(C)C(=O)CN(CC)C1=O [PP0483] | – | – | B (a compound having 3 or more and less than 10 is denoted as B) | B (a compound having 3 or more and less than 10 is denoted as B)
